The source made the active and inactive calls. No cut-off for these calls is given here.

For orientation: half-life means the time in which the quantity being followed falls by half.

Series [1] can be described thus: Plasma half life in human. It counts as ADME, cell-free.
Series [2] in a line: Plasma half life in mouse. The class given is ADME, organism-based.
The subject of series [3] is B16. The series can be described thus: Inhibitory activity administered was determined against sc B16 melanoma cells; Active. The class given is functional, organism-based. Conditions: Mus musculus.
For series [4], the system named is P388. The series can be described thus: Inhibitory activity administered was determined against ic P388 leukemia cells; Active. The class given is functional. The settings on record: Mus musculus.
Series [5] has as its system Homo sapiens. The series is described as follows: Antitumor activity administered ip was determined in human model; Active. The class given is functional, organism-based.
The subject of series [6] is L1210. The series can be described thus: Inhibitory activity administered was determined against ic L1210 leukemia cells; Active. It counts as functional. Conditions: Mus musculus.
In series [7] the test system is P388. The series can be described thus: Inhibitory activity administered iv was determined against implanted P388 leukemia cells; Active. It counts as functional, organism-based. The settings on record: Mus musculus.
The nature of series [8]: Plasma half life in monkey. It counts as ADME. Conditions: cercopithecidae.
Series [9] is described as follows: Plasma half life in dog. It counts as ADME, organism-based, Canis lupus familiaris.
Series [10] concerns Mus musculus. The series can be described thus: Antitumor activity administered ip, po was determined in murine model; Active. The class given is functional, organism-based.

Turning to `COc1cc([C@H]2c3cc4c(cc3[C@@H](O[C@@H]3O[C@H]5CO[C@@H](C)O[C@H]5[C@H](O)[C@@H]3O)[C@H]3COC(=O)[C@H]23)OCO4)cc(OC)c1OP(=O)([O-])[O-].[Na+].[Na+]`, the half-life was found to be 45 min in series [1], 39 min in series [2], 39 min in series [8] and 124 min in series [9]. Besides, the result in series [3], in series [4], in [5], in [6] and in [7] was Active.

In the case of `COc1cc(C2c3cc4c(cc3[C@@H](O[C@@H]3O[C@@H]5CO[C@@H](C)O[C@H]5[C@H](O)[C@H]3O)[C@H]3COC(=O)[C@H]23)OCO4)cc(OC)c1O` (single isomer, unassigned), the outcome in series [5] and in [10] was Active.

The record behind these values is ChEMBL document CHEMBL1128008, “Synthesis of etoposide phosphate, BMY-40481: A water-soluble clinically active prodrug of etoposide” (Bioorg Med Chem Lett, 1994).
